From patent US10259810B2, “N-sulfonylated pyrazolo[3,4-b]pyridin-6-carboxamides and method of use” (AbbVie S.à.r.l., priority 2015, dated 2019)
pEC50: −log10 of the molar value.

Key:
[1] = target: T1, ΔF508-CFTR (Homo sapiens, UniProt P13569, DEL508-508); assay: CFTR cell surface levels using HRP-tagged ΔF508-CFTR expressing CFBE cells, in the presence of a co-corrector; type: cell-based; settings: HRP-tagged ΔF508-CFTR CFBE cells, in the presence of 3 μM co-corrector; for pEC50: read-out: EC50
T1 construct: host or cells: CFBE41o-, doxycycline-inducible
Summary of the method: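 Chemiluminescent read-out of surface HRP (15 min, dark) after PBS washes. Activity is normalized as 100×(sample−DMSO)/(3 μM co-corrector alone−DMSO).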

[2] = target: T1, ΔF508-CFTR; assay: CFTR cell surface levels using HRP-tagged ΔF508-CFTR expressing CFBE cells, intrinsic corrector capacity; type: cell-based; design: % Activation: concentration or dose not given beside the values; settings: HRP-tagged ΔF508-CFTR expressing CFBE41o- cells, compound alone (intrinsic corrector capacity), 20 hours at 33° C.; for pEC50: read-out: EC50
Summary of the method: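 Surface ΔF508-CFTR was measured as HRP chemiluminescence from an extracellular-loop-4 tag, expressed as percent activity between DMSO and a […] corrector control.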

T1 sequence (P13569 with tags, fused parts or gaps DEL508-508): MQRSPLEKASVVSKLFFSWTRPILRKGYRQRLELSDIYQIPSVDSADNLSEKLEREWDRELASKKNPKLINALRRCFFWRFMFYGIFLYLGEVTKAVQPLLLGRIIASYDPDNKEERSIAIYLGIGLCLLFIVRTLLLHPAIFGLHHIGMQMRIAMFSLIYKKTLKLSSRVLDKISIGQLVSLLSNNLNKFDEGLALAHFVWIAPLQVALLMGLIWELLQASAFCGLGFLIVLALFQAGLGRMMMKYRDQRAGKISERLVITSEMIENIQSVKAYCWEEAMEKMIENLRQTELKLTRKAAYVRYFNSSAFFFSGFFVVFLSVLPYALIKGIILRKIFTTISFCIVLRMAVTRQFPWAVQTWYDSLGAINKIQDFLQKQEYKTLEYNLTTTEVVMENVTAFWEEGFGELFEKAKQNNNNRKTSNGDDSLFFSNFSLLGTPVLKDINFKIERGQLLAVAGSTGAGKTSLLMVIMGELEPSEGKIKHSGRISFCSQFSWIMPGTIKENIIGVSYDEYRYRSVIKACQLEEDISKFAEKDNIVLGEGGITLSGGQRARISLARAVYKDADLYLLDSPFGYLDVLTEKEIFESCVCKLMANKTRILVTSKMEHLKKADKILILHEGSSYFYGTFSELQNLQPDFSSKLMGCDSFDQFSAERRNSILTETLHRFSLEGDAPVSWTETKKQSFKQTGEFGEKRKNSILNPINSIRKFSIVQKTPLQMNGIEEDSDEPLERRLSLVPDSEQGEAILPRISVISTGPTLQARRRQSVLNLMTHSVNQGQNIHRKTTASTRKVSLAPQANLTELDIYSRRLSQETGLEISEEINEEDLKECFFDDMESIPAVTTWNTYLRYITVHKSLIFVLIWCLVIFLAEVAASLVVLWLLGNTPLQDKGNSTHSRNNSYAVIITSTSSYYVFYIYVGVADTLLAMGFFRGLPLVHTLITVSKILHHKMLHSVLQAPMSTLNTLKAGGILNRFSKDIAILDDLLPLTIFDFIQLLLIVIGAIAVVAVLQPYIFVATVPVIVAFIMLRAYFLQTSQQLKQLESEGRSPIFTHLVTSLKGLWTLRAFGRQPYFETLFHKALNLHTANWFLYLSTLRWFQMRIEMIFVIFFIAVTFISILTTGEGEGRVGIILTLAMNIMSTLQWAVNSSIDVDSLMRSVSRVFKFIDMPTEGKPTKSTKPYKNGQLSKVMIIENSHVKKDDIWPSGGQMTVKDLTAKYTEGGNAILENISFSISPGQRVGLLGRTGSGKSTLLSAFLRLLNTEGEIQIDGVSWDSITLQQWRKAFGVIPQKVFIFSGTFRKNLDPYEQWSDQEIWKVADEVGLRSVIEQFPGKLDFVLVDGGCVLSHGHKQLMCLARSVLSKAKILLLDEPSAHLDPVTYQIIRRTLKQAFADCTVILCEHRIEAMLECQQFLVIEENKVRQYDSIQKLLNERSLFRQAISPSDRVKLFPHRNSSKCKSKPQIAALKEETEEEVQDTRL

SMILES	% Activation [1] [%]	pEC50 [1]	% Activation [2] [%]	pEC50 [2]
CC(C)c1nn(-c2ccc(F)cc2F)c2nc(C(=O)NS(C)(=O)=O)cc(-c3cnc(N4CCC(C#N)CC4)nc3)c12 [Compound 139, 4-[2-(4-cyanopiperidin-1-yl)pyrimidin-5-yl]-1-(2,4-difluorophenyl)-N-(methanesulfonyl)-3-(propan-2-yl)-1H-pyrazolo[3,4-b]pyridine-6-carboxamide]	335.5	6.12	163.83	6.09
CC(C)c1nn(-c2ccc(F)cc2F)c2nc(C(=O)NS(C)(=O)=O)cc(-c3ccc(N4CCC(C#N)CC4)nc3)c12 [Compound 140, 4-[6-(4-cyanopiperidin-1-yl)pyridin-3-yl]-1-(2,4-difluorophenyl)-N-(methanesulfonyl)-3-(propan-2-yl)-1H-pyrazolo[3,4-b]pyridine-6-carboxamide]	377.9	6.42	210.3	6.13
CC(C)c1nn(-c2ccc(F)cc2F)c2nc(C(=O)NS(C)(=O)=O)cc(-c3ccc(N4CCC(C#N)CC4)cc3)c12 [Compound 141, 4-[4-(4-cyanopiperidin-1-yl)phenyl]-1-(2,4-difluorophenyl)-N-(methanesulfonyl)-3-(propan-2-yl)-1H-pyrazolo[3,4-b]pyridine-6-carboxamide]	414.63	6.65	233.07	6.54
COC1CCN(c2cc(C(=O)NS(=O)(=O)C3CCS(=O)(=O)C3)nc3c2c(C2CCC2)nn3-c2ccccc2)CC1 (stereo not drawn) [Compound 143, 3-cyclobutyl-N-(1,1-dioxo-1λ^6-thiolane-3-sulfonyl)-4-(4-methoxypiperidin-1-yl)-1-phenyl-1H-pyrazolo[3,4-b]pyridine-6-carboxamide]	217.8	6.08	107.15	5.95
CC(C)c1nn(C2CCCOC2)c2nc(C(=O)NS(C)(=O)=O)cc(-c3ccc(N4CCC(C#N)CC4)nc3)c12 (stereo not drawn) [Compound 145, 4-[6-(4-cyanopiperidin-1-yl)pyridin-3-yl]-N-(methanesulfonyl)-1-(oxan-3-yl)-3-(propan-2-yl)-1H-pyrazolo[3,4-b]pyridine-6-carboxamide]	271.43	6.20	112.03	5.98
COC1CCN(c2cc(C(=O)NS(=O)(=O)CCC(F)(F)F)nc3c2c(C2CCC2)nn3-c2ccccc2)CC1 [Compound 147, 3-cyclobutyl-4-(4-methoxypiperidin-1-yl)-1-phenyl-N-(3,3,3-trifluoropropane-1-sulfonyl)-1H-pyrazolo[3,4-b]pyridine-6-carboxamide]	363.93	7.00	176.47	6.45
Cc1cccc(-n2nc(C(C)C)c3c(N4CCC5(C4)CC5(F)F)cc(C(=O)NS(C)(=O)=O)nc32)c1 (stereo not drawn) [Compound 149, 4-(1,1-difluoro-5-azaspiro[2.4]heptan-5-yl)-N-(methanesulfonyl)-1-(3-methylphenyl)-3-(propan-2-yl)-1H-pyrazolo[3,4-b]pyridine-6-carboxamide]	299.95	6.59	122.3	6.41
CC(C)OC1CCN(c2cc(C(=O)NS(C)(=O)=O)nc3c2c(C2CCC2)nn3-c2ccccc2)CC1 [Compound 151, 3-cyclobutyl-N-(methanesulfonyl)-1-phenyl-4-{4-[(propan-2-yl)oxy]piperidin-1-yl}-1H-pyrazolo[3,4-b]pyridine-6-carboxamide]	387.15	6.96	228.95	6.46
COCC1CCCN(c2cc(C(=O)NS(C)(=O)=O)nc3c2c(C2CCC2)nn3-c2ccccc2)C1 (stereo not drawn) [Compound 153, 3-cyclobutyl-N-(methanesulfonyl)-4-[3-(methoxymethyl)piperidin-1-yl]-1-phenyl-1H-pyrazolo[3,4-b]pyridine-6-carboxamide]	290.05	6.88	146.7	6.45
CS(=O)(=O)NC(=O)c1cc(N2CCC(OCC(=O)N3CCCC3)CC2)c2c(C3CCC3)nn(-c3ccccc3)c2n1 [Compound 154, 3-cyclobutyl-N-(methanesulfonyl)-4-{4-[2-oxo-2-(pyrrolidin-1-yl)ethoxy]piperidin-1-yl}-1-phenyl-1H-pyrazolo[3,4-b]pyridine-6-carboxamide]	447.85	6.69	275.65	6.27
COCC1CCN(c2cc(C(=O)NS(C)(=O)=O)nc3c2c(C(C)C)nn3-c2cccc(C)c2)CC1 [Compound 156, N-(methanesulfonyl)-4-[4-(methoxymethyl)piperidin-1-yl]-1-(3-methylphenyl)-3-(propan-2-yl)-1H-pyrazolo[3,4-b]pyridine-6-carboxamide]	636.47	6.44	411	6.36
CC(C)c1nn(-c2cccc(N(C)C)c2)c2nc(C(=O)NS(C)(=O)=O)cc(N3CCCCC3)c12 [Compound 157, 1-[3-(dimethylamino)phenyl]-N-(methanesulfonyl)-4-(piperidin-1-yl)-3-(propan-2-yl)-1H-pyrazolo[3,4-b]pyridine-6-carboxamide]	542.17	6.45	327.8	6.34
CS(=O)(=O)NC(=O)c1cc(N2CCC3(CCO3)CC2)c2c(C3CCC3)nn(-c3ccccc3)c2n1 [Compound 159, 3-cyclobutyl-N-(methanesulfonyl)-4-(1-oxa-7-azaspiro[3.5]nonan-7-yl)-1-phenyl-1H-pyrazolo[3,4-b]pyridine-6-carboxamide]	270.3	6.32	103.02	6.18
COCCC1CCN(c2cc(C(=O)NS(C)(=O)=O)nc3c2c(C(C)C)nn3-c2cccc(C)c2)CC1 [Compound 161, N-(methanesulfonyl)-4-[4-(2-methoxyethyl)piperidin-1-yl]-1-(3-methylphenyl)-3-(propan-2-yl)-1H-pyrazolo[3,4-b]pyridine-6-carboxamide]	574.1	6.45	406.4	6.14
COC1CCCN(c2cc(C(=O)NS(C)(=O)=O)nc3c2c(C(C)C)nn3-c2cccc(C)c2)C1 (stereo not drawn) [Compound 162, N-(methanesulfonyl)-4-(3-methoxypiperidin-1-yl)-1-(3-methylphenyl)-3-(propan-2-yl)-1H-pyrazolo[3,4-b]pyridine-6-carboxamide]	331.53	6.52	169	6.35
CCS(=O)(=O)NC(=O)c1cc(N2CCCC(OC)C2)c2c(C(C)C)nn(-c3cccc(C)c3)c2n1 (stereo not drawn) [Compound 163, N-(ethanesulfonyl)-4-(3-methoxypiperidin-1-yl)-1-(3-methylphenyl)-3-(propan-2-yl)-1H-pyrazolo[3,4-b]pyridine-6-carboxamide]	342.3	6.95	175.4	6.35
Cc1cccc(-n2nc(C(C)C)c3c(N4CCC(CF)CC4)cc(C(=O)NS(C)(=O)=O)nc32)c1 [Compound 164, 4-[4-(fluoromethyl)piperidin-1-yl]-N-(methanesulfonyl)-1-(3-methylphenyl)-3-(propan-2-yl)-1H-pyrazolo[3,4-b]pyridine-6-carboxamide]	492.45	6.41	295.25	6.23
Cc1cccc(-n2nc(C(C)C)c3c(N4CCC(S(C)(=O)=O)CC4)cc(C(=O)NS(C)(=O)=O)nc32)c1 [Compound 165, N-(methanesulfonyl)-4-[4-(methanesulfonyl)piperidin-1-yl]-1-(3-methylphenyl)-3-(propan-2-yl)-1H-pyrazolo[3,4-b]pyridine-6-carboxamide]	534.2	6.05	373.95	5.75
CC(C)Oc1nn(-c2ccccc2)c2nc(C(=O)NS(C)(=O)=O)cc(-c3ccc(N4CCOCC4)cc3)c12 [Compound 166, N-(methanesulfonyl)-4-[4-(morpholin-4-yl)phenyl]-1-phenyl-3-[(propan-2-yl)oxy]-1H-pyrazolo[3,4-b]pyridine-6-carboxamide]	408.53	6.51	235.2	6.36
COCCN(C)c1cc(C(=O)NS(C)(=O)=O)nc2c1c(C(C)C)nn2-c1cccc(C)c1 [Compound 170, N-(methanesulfonyl)-4-[(2-methoxyethyl)(methyl)amino]-1-(3-methylphenyl)-3-(propan-2-yl)-1H-pyrazolo[3,4-b]pyridine-6-carboxamide]	425.6	6.14	213.5	6.01
Cc1cccc(-n2nc(C(C)C)c3c(N4CCC5(CCOCC5)C4)cc(C(=O)NS(C)(=O)=O)nc32)c1 [Compound 171, N-(methanesulfonyl)-1-(3-methylphenyl)-4-(8-oxa-2-azaspiro[4.5]decan-2-yl)-3-(propan-2-yl)-1H-pyrazolo[3,4-b]pyridine-6-carboxamide]	289.23	6.51	143.4	6.10
